Results reported in patent US20230374038A1, “MODULATORS OF CYSTIC FIBROSIS TRANSMEMBRANE CONDUCTANCE REGULATOR” (VERTEX PHARMACEUTICALS INCORPORATED, priority 2020, published 2023).
Where two headings read alike, the source gives them in different places.

Legend:
[1] = target: T1, F508del (Homo sapiens, UniProt P13569, DEL508-508); test: 3T3 Assay: membrane potential optical assay for F508del correctors in NIH 3T3 cells; assay type: cell-based; settings: for EC50: F508del corrector assay; for Emax: NIH3T3, F508del corrector assay, read-out: 3T3 Max Activity
T1 construct: expressed in transfected cells; host or cells: NIH3T3 mouse fibroblasts
Description: The assay utilizes fluorescent voltage sensing dyes to measure changes in membrane potential using a fluorescent plate reader (e.g., FLIPR III, Molecular Devices, Inc.) as a readout for increase in functional F508del in NIH 3T3 cells. The driving force for the response is the creation of a chloride ion gradient in conjunction with channel activation by a single liquid addition step after the cells have previously been treated with compounds and subsequently loaded with a voltage sensing dye.
To identify correctors of F508del, a single-addition HTS assay format was developed. This HTS assay utilizes fluorescent voltage sensing dyes to measure changes in membrane potential on the FLIPR III as a measurement for increase in gating (conductance) of F508del in F508del NIH 3T3 cells. The F508del NIH 3T3 cell cultures were incubated with the corrector compounds at a range of concentrations for 18-24 hours at 37° C., and subsequently loaded with a redistribution dye. The driving force for the response is a Cl^− ion gradient in conjunction with channel activation with forskolin in a single liquid addition step using a fluorescent plate reader such as FLIPR III.
Bath Solution #1: (in mM) NaCl 160, KCl 4.5, CaCl2) 2, MgCl2 1, HEPES 10, pH 7.4 with NaOH.
Chloride-free bath solution: Chloride salts in Bath Solution #1 (above) are substituted with gluconate salts.
NIH3T3 mouse fibroblasts stably expressing F508del are used for optical measurements of membrane potential. The cells are maintained at 37° C. in 5% CO2 and 90% humidity in Dulbecco's modified Eagle's medium supplemented with 2 mM glutamine, 10% fetal bovine serum, 1×NEAA, b-ME, 1× pen/strep, and 25 mM HEPES in 175 cm^2 culture flasks. For all optical assays, the cells were seeded at ˜20,000/well in 384-well matrigel-coated plates. For the correction assays, the cells are cultured at 37° C. with and without compounds for 16-24 hours.

[2] = target: T2, CFTR (Homo sapiens, UniProt P13569); test: Membrane Potential Dye, Enteroid Assay A; assay type: cell-based; settings: for EC50: read-out: Ent. A EC50
Experimental: Base medium (ADF+++) consisted of Advanced DMEM/Ham's F12, 2 mM Glutamax, 10 mM HEPES, 1 µg/mL penicillin/streptomycin.
Intestinal enteroid maintenance medium (IEMM) consisted of ADF+++, 1× B27 supplement, 1× N2 supplement, 1.25 mM N-acetyl cysteine, 10 mM Nicotinamide, 50 ng/mL hEGF, 10 nM Gastrin, 1 pg/mL hR-spondin-1, 100 ng/mL hNoggin, TGF-b type 1 inhibitor A-83-01, 100 μg/mL Primocin, […] P38 MAPK inhibitor SB202190.
Bath 1 Buffer consisted of 1 mM MgCl2, 160 mM NaCl, 4.5 mM KCl, 10 mM HEPES, 10 mM Glucose, 2 mM CaCl2).
Chloride Free Buffer consisted of 1 mM Magnesium Gluconate, 2 mM Calcium Gluconate, 4.5 mM Potassium Gluconate, 160 mM Sodium Gluconate, 10 mM HEPES, 10 mM Glucose.
Bath1 Dye Solution consisted of Bath 1 Buffer, 0.04% Pluronic F127, […] Methyl Oxonol, 30 μM CaCCinh-A01, 30 μM Chicago Sky Blue.
Chloride Free Dye Solution consisted of Chloride Free Buffer, 0.04% Pluronic F127, 20 μM Methyl Oxonol, 30 μM CaCCinh-A01, 30 μM Chicago Sky Blue.
Chloride Free Dye Stimulation Solution consisted of Chloride Free Dye Solution, 10 μM forskolin, 100 μM IBMX, and 300 nM Compound III.
Human intestinal epithelial enteroid cells were obtained from the Hubrecht Institute for Developmental Biology and Stem Cell Research, Utrecht, The Netherlands and expanded in T-Flasks as previously described (Dekkers J F, Wiegerinck C L, de Jonge H R, Bronsveld I, Janssens H M, de Winter-de Groot K M, Brandsma A M, de Jong N W M, Bijvelds M J C, Scholte B J, Nieuwenhuis E E S, van den Brink S, Clevers H, van der Ent C K, Middendorp S and M Beekman J M. A functional CFTR assay using primary cystic fibrosis intestinal organoids. Nat Med. 2013 July; 19(7):939-45.).
Cells were recovered in cell recovery solution, collected by centrifugation at 650 rpm for 5 min at 4° C., resuspended in TryPLE and incubated for 5 min at 37° C. Cells were then collected by centrifugation at 650 rpm for 5 min at 4° C. and resuspended in IEMM containing 10 μM ROCK inhibitor (RI). The cell suspension was passed through a 40 μm cell strainer and resuspended at 1×10^6 cells/mL in IEMM containing 10 μM RI. Cells were seeded at 5000 cells/well into multi-well plates and incubated for overnight at 37° C., 95% humidity and 5% CO2 prior to assay.
Enteroid cells were incubated with test compound in IEMM for 18-24 hours at 37° C., 95% humidity and 5% CO2. […] Briefly, cells were washed 5 times in Bath 1 Buffer. Bath 1 Dye Solution was added, and the cells were incubated for 25 min at room temperature. Following dye incubation, cells were washed 3 times in Chloride Free Dye Solution. Chloride transport was initiated by addition of Chloride Free Dye Stimulation Solution and the fluorescence signal was read for 15 min. […] Chloride transport was then expressed as a percentage of the chloride transport following treatment with 3 μM (S)—N-((6-aminopyridin-2-yl)sulfonyl)-6-(3-fluoro-5-isobutoxyphenyl)-2-(2,2,4-trimethylpyrrolidin-1-yl)nicotinamide, 3 μM (R)-1-(2,2-difluorobenzo[d][1,3]dioxol-5-yl)-N-(1-(2,3-dihydroxypropyl)-6-fluoro-2-(1-hydroxy-2-methylpropan-2-yl)-1H-indol-5-yl)cyclopropanecarboxamide and 300 nM acute N-[2,4-bis(1,1-dimethylethyl)-5-hydroxyphenyl]-1,4-dihydro-4-oxoquinoline-3-carboxamide triple combination control (% Activity).

[3] = target: T2, CFTR; test: Membrane Potential Dye, Enteroid Assay B; assay type: cell-based
In short: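 Human intestinal enteroids seeded at 5000 cells/well, treated with compound 18-24 h at 37 °C, then loaded 25 min with methyl oxonol membrane-potential dye plus CaCC blockers. Chloride transport started in chloride-free buffer with 10 μM forskolin, 100 μM IBMX and 300 nM Compound III, read 15 min; expressed as % of triple-combination control.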

T1 sequence (P13569 with tags, fused parts or gaps DEL508-508): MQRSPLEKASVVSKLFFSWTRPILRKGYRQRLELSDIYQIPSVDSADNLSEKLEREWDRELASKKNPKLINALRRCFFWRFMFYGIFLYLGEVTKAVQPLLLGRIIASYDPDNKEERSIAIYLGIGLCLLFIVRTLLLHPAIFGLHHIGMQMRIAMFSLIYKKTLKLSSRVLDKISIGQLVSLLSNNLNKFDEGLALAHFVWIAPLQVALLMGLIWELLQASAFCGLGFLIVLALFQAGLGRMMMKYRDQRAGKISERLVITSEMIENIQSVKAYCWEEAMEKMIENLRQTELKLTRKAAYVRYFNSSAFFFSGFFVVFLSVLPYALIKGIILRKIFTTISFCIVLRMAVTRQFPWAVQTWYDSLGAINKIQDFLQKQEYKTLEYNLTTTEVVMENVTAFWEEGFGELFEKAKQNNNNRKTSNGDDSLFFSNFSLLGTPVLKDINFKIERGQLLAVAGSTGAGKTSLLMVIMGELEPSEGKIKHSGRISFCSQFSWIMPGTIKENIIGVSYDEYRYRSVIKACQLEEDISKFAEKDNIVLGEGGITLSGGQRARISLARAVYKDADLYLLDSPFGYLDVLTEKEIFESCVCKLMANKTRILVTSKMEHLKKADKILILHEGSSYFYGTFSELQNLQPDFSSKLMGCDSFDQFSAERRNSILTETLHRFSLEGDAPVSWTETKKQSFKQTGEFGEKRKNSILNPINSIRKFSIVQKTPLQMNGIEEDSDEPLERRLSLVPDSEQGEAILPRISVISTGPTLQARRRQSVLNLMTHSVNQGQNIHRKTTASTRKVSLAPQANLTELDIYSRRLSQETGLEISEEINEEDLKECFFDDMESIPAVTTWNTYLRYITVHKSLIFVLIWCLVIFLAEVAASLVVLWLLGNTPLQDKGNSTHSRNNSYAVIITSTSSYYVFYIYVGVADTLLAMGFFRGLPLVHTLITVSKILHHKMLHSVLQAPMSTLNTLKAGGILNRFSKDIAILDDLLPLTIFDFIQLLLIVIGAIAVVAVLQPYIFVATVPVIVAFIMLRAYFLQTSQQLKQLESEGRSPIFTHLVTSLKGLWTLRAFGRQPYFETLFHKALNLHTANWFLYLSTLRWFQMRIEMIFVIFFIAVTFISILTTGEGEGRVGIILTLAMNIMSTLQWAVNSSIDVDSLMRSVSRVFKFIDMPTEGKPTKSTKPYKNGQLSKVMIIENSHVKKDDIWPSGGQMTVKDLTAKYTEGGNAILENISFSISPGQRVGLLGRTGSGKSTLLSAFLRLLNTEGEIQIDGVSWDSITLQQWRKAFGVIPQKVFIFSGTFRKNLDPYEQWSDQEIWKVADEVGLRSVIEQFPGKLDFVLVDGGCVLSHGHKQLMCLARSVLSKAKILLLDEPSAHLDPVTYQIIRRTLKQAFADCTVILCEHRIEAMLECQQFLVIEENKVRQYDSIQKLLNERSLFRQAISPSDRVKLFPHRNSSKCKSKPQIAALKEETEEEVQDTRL
T2 sequence (P13569 with tags, fused parts or gaps DEL508-508): as above

Compound	EC50 [1]	Emax [1]	Ent. A Max Activity [2]	EC50 [2]	further results
CCc1c2nc(nc1-c1c(C)c(C)c(C)c(C)c1C)NS(=O)(=O)c1cccc(c1)NC(=O)c1cccc(c1)O2 [Compound 2, 4-Ethyl-9,9-dioxo-5-(2,3,4,5,6-pentamethylphenyl)-2-oxa-9λ^6-thia-6,8,15,23-tetrazatetracyclo[15.3.1.13,7.110,14]tricosa-1(21),3,5,7(23),10,12,14(22),17,19-nonaen-16-one]	< 1000 nM	> 60%	–	–	–
CCc1c2nc(nc1-c1ccccc1COC)NS(=O)(=O)c1cccc(c1)NC(=O)c1cccc(c1)O2 [Compound 12]	< 1000 nM	> 60%	–	–	–
CCc1c2nc(nc1-c1ccccc1C1CCC1)NS(=O)(=O)c1cccc(c1)NC(=O)c1cccc(c1)O2 [Compound 1, 5-(2-Cyclobutylphenyl)-4-ethyl-9,9-dioxo-2-oxa-9λ^6-thia-6,8,15,23-tetrazatetracyclo[15.3.1.13,7.110,14]tricosa-1(21),3,5,7(23),10,12,14(22),17,19-nonaen-16-one]	< 1000 nM	> 60%	++ (++ is 30-60%)	< 1000 nM	–
CCc1c2nc(nc1-c1ccccc1CN(C)C)NS(=O)(=O)c1cccc(c1)NC(=O)c1cccc(c1)O2 [Compound 10]	–	< 30%	–	–	–
CCc1c2nc(nc1-c1ccccc1COCCOC)NS(=O)(=O)c1cccc(c1)NC(=O)c1cccc(c1)O2 [Compound 11]	< 1000 nM	> 60%	–	–	–
CCc1c2nc(nc1-c1c(C)cccc1C)NS(=O)(=O)c1cccc(c1)NC(=O)c1cccc(c1)O2 [Compound 4, 5-(2,6-Dimethylphenyl)-4-ethyl-9,9-dioxo-2-oxa-9λ^6-thia-6,8,15,23-tetrazatetracyclo[15.3.1.13,7.110,14]tricosa-1(21),3,5,7(23),10,12,14(22),17,19-nonaen-16-one]	< 1000 nM	> 60%	+++ (+++ is >60%)	1000 to 3000 nM	–
Cc1ccc2cc1Oc1nc(nc(-c3c(C)cccc3C)c1Cl)NS(=O)(=O)c1cccc(c1)NC2=O [Compound 8]	< 1000 nM	> 60%	–	–	–
CCc1c2nc(nc1-c1ccccc1C(C)C)NS(=O)(=O)c1cccc(c1)NC(=O)c1cc(ccc1Cl)O2 [Compound 5, 18-Chloro-4-ethyl-5-[2-(propan-2-yl)phenyl]-2-oxa-9λ^6-thia-6,8,15,23-tetraazatetracyclo[15.3.1.13,7.110,14]tricosa-1(20),3(23),4,6,10(22),11,13,17(21),18-nonaene-9,9,16-trione]	< 1000 nM	> 60%	+++ (+++ is >60%)	< 1000 nM	–

The next lines start with results.

EC50 [1]	Emax [1]	Ent. A Max Activity [2]	EC50 [2]	Compound	further results
< 1000 nM	> 60%	+ (+ is <30%)	–	CCc1c2nc(nc1-c1ccccc1OC(C)C)NS(=O)(=O)c1cccc(c1)NC(=O)c1cccc(c1)O2 [Compound 29]	–
< 1000 nM	> 60%	+++ (+++ is >60%)	< 1000 nM	CCc1c2nc(nc1-c1ccccc1C(C)C)NS(=O)(=O)c1cccc(c1)NC(=O)c1cccc(c1)O2 [Compound 16]	–
< 1000 nM	> 60%	+++ (+++ is >60%)	< 1000 nM	CCc1c2nc(nc1-c1ccccc1C(C)C)NS(=O)(=O)c1cccc(c1)NC(=O)c1cccc(c1C)O2 [Compound 15]	–
< 1000 nM	> 60%	–	–	CCc1c2nc(nc1-c1c(C)cc(C)cc1C)NS(=O)(=O)c1cccc(c1)NC(=O)c1cccc(c1)O2 [Compound 19]	–
–	–	++ (++ is 30-60%)	3000 to 30000 nM	Cc1ccccc1-c1nc2nc(c1C(F)(F)F)OCC1CN(C)CCN1C(=O)c1cccc(c1)S(=O)(=O)N2 (stereo not drawn) [Compound 31, 6-Methyl-13-(2-methylphenyl)-12-(trifluoromethyl)-10-oxa-17λ^6-thia-3,6,14,16,23-pentaazatetracyclo[16.3.1.111,15.03,8]tricosa-1(22),11,13,15(23),18,20-hexaene-2,17,17-trione]	ring closure, yield after HPLC (from Cc1ccccc1-c1nc(NS(=O)(=O)c2cccc(C(=O)N3CCN(C)CC3CO)c2)nc(Cl)c1C(F)(F)F, snar bond, 13-membered ring, NaH, NMP, 70.0 °C, 4.0 h, 2 steps): 6%
–	< 30%	–	–	CCc1c2nc(nc1-c1ccc([S+](C)[O-])cc1)NS(=O)(=O)c1cccc(c1)NC(=O)c1cccc(c1)O2 (stereo not drawn) [Compound 18]	–
–	–	+++ (+++ is >60%)	< 1000 nM	Cc1cccc(C)c1-c1nc2nc(c1OC(C)C)OC[C@@H](CC(C)C)NC(=O)c1cccc(c1)S(=O)(=O)N2 [Compound 165, (11R)-6-(2,6-Dimethylphenyl)-11-isobutyl-7-isopropoxy-2,2-dioxo-9-oxa-2λ^6-thia-3,5,12,19-tetrazatricyclo[12.3.1.14,8]nonadeca-1(18),4(19),5,7,14,16-hexaen-13-one]	ring closure, yield after HPLC (from Cc1cccc(C)c1-c1nc(NS(=O)(=O)c2cccc(C(=O)O)c2)nc(OC[C@H](N)CC(C)C)c1OC(C)C, amide bond, 13-membered ring, HATU/Et3N, DMF, 12.0 mM, 0.5 h, 2 steps): 8%; Ent. B Max Activity [3]: +++ (+++ is >60%); EC50 ([3]; read-out: Ent. B EC50): < 1000 nM
< 1000 nM	> 60%	–	–	CCc1c2nc(nc1-c1cccc(C)c1C)NS(=O)(=O)c1cccc(c1)NC(=O)c1cccc(c1)O2 [Compound 17]	–
–	–	++ (++ is 30-60%)	1000 to 3000 nM	Cc1ccccc1-c1nc2nc(c1C(F)(F)F)OCC1CN(CCN1CCC1(C(F)(F)F)CC1)C(=O)c1cccc(c1)S(=O)(=O)N2 (stereo not drawn) [Compound 32, 12-(2-Methylphenyl)-13-(trifluoromethyl)-18-{2-[1-(trifluoromethyl)cyclopropyl]ethyl}-15-oxa-8λ^6-thia-1,9,11,18,22-pentaazatetracyclo[15.3.1.13,7.110,14]tricosa-3(23),4,6,10(22),11,13-hexaene-2,8,8-trione]	ring closure, yield after HPLC (from Cc1ccccc1-c1nc(NS(=O)(=O)c2cccc(C(=O)O)c2)nc(OCC2CNCCN2CCC2(C(F)(F)F)CC2)c1C(F)(F)F, amide bond, 14-membered ring, HATU/DIEA, DMF, 25.0 °C, 1.0 h, 3 steps): 16%
